The source of these data is US9913838B2, “Methods of treating cancer using compositions comprising perillyl alcohol derivative” (NEONC TECHNOLOGIES INC., priority 2010, dated 2018).

The test system of one data set is a variant of MDA-MB-231. In words: In vitro sensitivity of the cell line used in vivo. It counts as cell-based. Particulars: Homo sapiens, in vitro sensitivity to TMZ.
For data set [1] the following is noted: CSF versus systemic circulation; cited from earlier work.
Data set [2] deals with brain endothelial cells (BEC; confluent and subconfluent). In words: MTT cytotoxicity assay, brain endothelial cells. It is filed as cell-based. The following applies: in words. The text has this: (§1) Cancer Lett. 2011 Mar. 28; 302(2):100-8.
Background: Formazan colour is commonly taken as a measure of viable cells.

Data set [3] has as its system tumor brain endothelial cells (TuBEC). In words: MTT cytotoxicity assay, tumor brain endothelial cells. The following applies: in words. It is filed as cell-based.
Excerpt: as §1

Data set [4] has as its system USC-04 glioma cancer stem cells. In words: cells. Particulars: read-out: cytotoxicity with 1050. As to the method:
MTT cytotoxicity assays were carried out after cells were treated with the TMZ alone, POH alone, or the TMZ-POH conjugate. The MTT cytotoxicity assays were carried out as described in Chen T C, et al. Green tea epigallocatechin gallate enhances therapeutic efficacy of temozolomide in orthotopic mouse glioblastoma models. Cancer Lett. 2011 Mar. 28; 302(2):100-8.

The test system of data set [5] is γ-H2AX, activated caspase 7 and cleaved PARP. In words: DNA damage and cell death marker analysis in MDA-MB-231 cells (Western blot). It counts as cell-based, human. Particulars: in words. As to the method: FIGS. 25A-25B show DNA damage and cell death marker analysis, where MDA-MB-231 cells were used for Western blot analysis of expression levels for markers of DNA damage (γ-H2AX) and cell death (activated caspase 7 and cleaved PARP). In FIG. 25A, cells were treated with 15 μM TMZ-POH and harvested every 24 hours up to 6 days; control cells remained untreated, or received vehicle (vh.) only. In FIG. 25B, cells were treated with 20 μM of either TMZ-POH, TMZ, or POH individually, or with 20 μM TMZ combined with 20 μM POH (TMZ+POH) and harvested after 24 hours or 5 days; control cells remained untreated, or received vehicle (vh.) only. In the case of caspase 7, only the activated (cleaved) form is shown (cl. C-7).
Total cell lysates were analyzed by Western blot analysis as described in P. Pyrko et al. Downregulation of survivin expression and concomitant induction of apoptosis by celecoxib and its non-cyclooxygenase-2-inhibitory analog, dimethyl-celecoxib (DMC), in tumor cells in vitro and in vivo. Mol Cancer 5 (2006) 19. The primary antibodies were purchased from Cell Signaling Technology (Beverly, Mass.) or Santa Cruz Biotechnology, Inc. (Santa Cruz, Calif.) and used according to the manufacturers' recommendations. All immunoblots were repeated at least once to confirm the results.
It is known that GBM cells treated with physiological concentrations of TMZ (<100 μM) in vitro can survive for several (5-7) days seemingly unaffected before substantial cell death becomes apparent. We observed a similar phenotype when breast cancer cell lines were treated with TMZ-POH, i.e., cell cultures only began to deteriorate approximately a week after the onset of drug treatment. In order to characterize TMZ-POH-induced cell death in greater detail, we treated MDA-MB-231 cells with 15 μM of the drug and collected cell lysates daily over the course of 6 days. The lysates were analyzed by Western blot for the presence of two apoptosis markers, cleaved (i.e. activated) caspase 7 and cleaved PARP-1 (poly ADP-ribose polymerase-1), along with the DNA damage marker γ-H2AX.
As shown in FIGS. 20A-20B above, an equimolar combination of TMZ+POH was unable to achieve the same potency in blocking colony survival as the TMZ-POH conjugate. […] We treated cells with the same concentration (20 μM) of TMZ-POH, TMZ, POH, or TMZ combined with POH (TMZ+POH), and analyzed the induction of γ-H2AX, activated caspase 7, and cleaved PARP. […] Thus, the results from the cell survival assay (FIGS. 20A-20B) correlated closely with the effects of these compounds on DNA damage and apoptosis markers (FIG. 25B), and in all cases TMZ-POH clearly generated the strongest anticancer impact.
In general terms: A western blot detects proteins with antibodies after separation by electrophoresis.

Where only a bound is given, the exact number is not on record here.

Take `Cn1nnc2c(C(N)=O)ncn2c1=O` [TMZ, temozolomide, reference compound]: the IC50 in the data set with a variant of MDA-MB-231 is less than 10 µM. For the same molecule, the “drug levels in the cerebrospinal fluid (CSF) lower than in plasma” value in data set [1] is reported as 80%.

Regarding `C=C(C)[C@@H]1CC=C(COC(=O)NC(=O)c2ncn3c(=O)n(C)nnc23)CC1` [TMZ-POH], the “cytotoxicity (MTT assay)” value is on record as “did not induce significant cytotoxicity” in data set [2] (confluent BEC); “Mild to moderate cytotoxicity” in data set [2] (subconfluent BEC, high concentrations); “did not induce significant cytotoxicity” in data set [3]. In data set [4], the IC50 is 150 µM. Further, in data set [5] (MDA-MB-231, 15 μM, over 6 days), the “active caspase 7 and cleaved PARP” value is reported as “started to increase at day 3”. Further, the γ-H2AX expression levels entry in data set [5] (MDA-MB-231, 15 μM, over 6 days) was “pronounced increase in γ-H2AX expression levels”. The “induction of γ-H2AX, activated caspase 7, and cleaved PARP” value in data set [5] (MDA-MB-231, 20 μM, after 5 days of treatment) is reported as “induced quite prominently”.
